# Laboratory results as given in ChEMBL document CHEMBL4350984, “Natural products as multidrug resistance modulators in cancer” (Eur J Med Chem, 2019).
# Assays:
# Homo sapiens [1] = organism: Homo sapiens; assay: Inhibition of BCRP-mediated mitoxantrone efflux in human NCI-H460/MX20 cells assessed as mitoxantrone accumulation at 20 uM after 15 mins by Hoechst 33342 staining based flow cytometry analysis relative to control; type: cell-based; parameters: scale not given: the % may be the effect or the level left
# Homo sapiens [2] = organism: Homo sapiens; assay: Inhibition of BCRP-mediated mitoxantrone efflux in human NCI-H460/MX20 cells assessed as mitoxantrone accumulation at 10 uM after 15 mins by Hoechst 33342 staining based flow cytometry analysis relative to control; type: cell-based; parameters: scale not given: the % may be the effect or the level left
# [3] = Cytotoxicity against human KBv200 cells assessed as reduction in cell viability; type: functional, cell-based
# cells = details: Homo sapiens, 72 h
# Description: Downregulation of ABCB1 gene expression in human EPG85-257RDB cells after 72 hrs by RT-PCR analysis
smiles,measurement,setting,value
COC(=O)c1c(-c2ccc(O)cc2)c(-c2ccc(O)cc2)cn1CC(=O)c1ccc(OC)cc1,Activity,Homo sapiens [1],94.5%
COc1ccc2c3c([nH]c2c1)[C@H](C=C(C)C)N1C(=O)[C@@H]2CCCN2C(=O)[C@@H]1C3,Activity,Homo sapiens [2],100%
COc1ccc2cc1Oc1ccc(cc1)C[C@H]1c3cc(c(OC)cc3CCN1C)Oc1c(OC)c(OC)cc3c1[C@H](C2)N(C)CC3 [FANCHININ],IC50,[3],2 µM
O=c1c(O)c(-c2ccc(O)c(O)c2)oc2cc(O)cc(O)c12 [QUERCETIN],IC50,cells,12 µM
